Laboratory results reported in patent US8329658B2, “Arylalkyl and heteroarylalkyl derivatives of cyclosporine A for the treatment and prevention of viral infection” (Scynexis, Inc., priority 2005, dated 2012).
pEC50, pIC50: −log10 of the molar value.

Experiments:
[1] = tested on: human hepatoma cell line ET (lub ubi neo/ET); assay: Cytotoxicity (colorimetric cell number assay) in HCV replicon ET cell line; conditions: for pIC50: read-out: Cytotoxicity IC50, concentration inhibiting cell viability by 50%, ET cells, 72 hours; for IC90: read-out: Cytotoxicity IC90, concentration inhibiting cell viability by 90%, ET cells, 72 hours
Description: (§1) Compounds were examined in the human hepatoma cell line ET (lub ubi neo/ET), a HCV RNA replicon containing a stable luciferase (LUC) reporter. The HCV RNA replicon ET contains the 5′ end of HCV (with the HCV Internal Ribosome Entry Site (IRES) and the first few amino acids of the HCV core protein) which drives the production of a firefly luciferase (LUC), ubiquitin, and neomycin phosphotransferase (NeoR) fusion protein. Ubiquitin cleavage releases the LUC and NeoR proteins. The EMCV IRES element controls the translation of the HCV […] NS3-NS5. The NS3 protein cleaves the HCV polyprotein to release the mature NS3, NS4A, NS4B, NS5A and NS5B proteins that are required for HCV replication. At the 3′ end of the replicon is the authentic 3′ NTR of HCV. The activity of the LUC reporter is directly proportional to HCV replication levels and positive-control antiviral compounds produce a reproducible antiviral response using the LUC endpoint.
(§2) The compounds were dissolved in DMSO at five half-log concentrations each, ranging from either 0.02 to 2 μM or 0.2 to 20 μM. Subconfluent cultures of the ET line were plated out into 96 well plates dedicated for the analysis of cell numbers (cytotoxicity) or antiviral activity and the next day the compounds were added to the appropriate wells. […] Compound EC50 and EC90 values were derived from HCV RNA levels assessed as HCV RNA replicon derived LUC activity. […] Compound IC50 and IC90 values were calculated using a colorimetric assay as an indication of cell numbers and cytotoxicity. The activity of the LUC reporter is directly proportional to HCV RNA levels in the human cell line. The HCV-replicon assay was validated in parallel experiments using interferon-alpha-2b as a positive control.

HIV-1IIIB = assay: HIV MTS cytoprotection assay in CEM-SS cells; type: cell-based, human immunodeficiency virus-1 (HIV); conditions: concentration inhibiting virus replication by 50%, 6 days post-infection, NS is no significant activity
Protocol: (§3) The compounds of the present invention were tested for antiretroviral activity against human immunodeficiency virus-1 (HIV) using infection of the human T-lymphoblastoid cell line, CEM-SS, with the HIV strain HIV-1IIIB (Weislow et al., 1989, J. Natl. Cancer Inst. 81, 577-586). In this MTS cytoprotection assay, each experiment included cell control wells (cells only), virus control wells (cells plus virus), drug toxicity wells (cells plus drug only), drug colorimetric control wells (drug only) as well as experimental wells (drug plus cells plus virus). Compounds were first dissolved in DMSO and tested using six half-log dilutions, starting with a high concentration of either 20 or 2 μM. […] was added to each well in a volume of 50 μL, the amount of virus determined to give approximately 90% cell killing at 6 days post-infection. At assay termination, assay plates were stained with the soluble tetrazolium-based dye MTS (CellTiter 96 Reagent, Promega) to determine cell viability and quantify compound toxicity. MTS is metabolized by the mitochondria enzymes of metabolically active cells to yield a soluble formazan product, providing a quantitative analysis of cell viability and compound cytotoxicity. The assay was validated in parallel experiments using Zidovudine (3′-azido-3′-deoxythymidine or AZT) as a positive control. The assay included determinations of compound EC50 (concentration inhibiting virus replication by 50%), IC50 (concentration resulting in 50% inhibition of cell growth) and a selectivity index (IC50/EC50).

HCV RNA replicon ET = assay: HCV RNA replicon luciferase (LUC) reporter assay in ET cell line; type: cell-based; conditions: replicon LUC activity, ET cells, 72 hours; for pEC50: concentration reducing viral replication by 50%; for EC90: concentration reducing viral replication by 90%
Description: as §1, §2

[2] = tested on: human T-lymphoblastoid cell line, CEM-SS; assay: Cytotoxicity (MTS) in CEM-SS cells; type: cell-based; conditions: concentration resulting in 50% inhibition of cell growth
Protocol: as §3

Row | Compound | pIC50 [1] | IC90 [1] [nM] | pEC50 (HIV-1IIIB) | pEC50 (HCV RNA replicon ET) | EC90 (HCV RNA replicon ET) [nM] | pIC50 [2]
1 | C/C=C/C[C@@H](C)[C@@H](O)[C@H]1C(=O)N[C@@H](CC)C(=O)N(C)C(OCc2ccsc2)C(=O)N(C)[C@@H](CC(C)C)C(=O)N[C@@H](C(C)C)C(=O)N(C)[C@@H](CC(C)C)C(=O)N[C@@H](C)C(=O)N[C@H](C)C(=O)N(C)[C@@H](CC(C)C)C(=O)N(C)[C@@H](CC(C)C)C(=O)N(C)[C@@H](C(C)C)C(=O)N1C (stereo partly drawn) [G, 3-[(thiophene-3-yl)methoxy]cyclosporin] | < 4.70 | > 20000 | 5.52 | 6.46 | 400 | < 4.70
2 | C/C=C/C[C@@H](C)[C@@H](O)[C@H]1C(=O)N[C@@H](CC)C(=O)N(C)C(OCc2ccoc2)C(=O)N(C)[C@@H](CC(C)C)C(=O)N[C@@H](C(C)C)C(=O)N(C)[C@@H](CC(C)C)C(=O)N[C@@H](C)C(=O)N[C@H](C)C(=O)N(C)[C@@H](CC(C)C)C(=O)N(C)[C@@H](CC(C)C)C(=O)N(C)[C@@H](C(C)C)C(=O)N1C (stereo partly drawn) [Compound E, 3-[(furan-3-yl)methoxy]cyclosporin] | < 4.70 | > 20000 | 6.06 | 6.60 | 600 | < 4.70
3 | C/C=C/C[C@@H](C)[C@@H](O)[C@H]1C(=O)N[C@@H](CC)C(=O)N(C)C(OCc2cccs2)C(=O)N(C)[C@@H](CC(C)C)C(=O)N[C@@H](C(C)C)C(=O)N(C)[C@@H](CC(C)C)C(=O)N[C@@H](C)C(=O)N[C@H](C)C(=O)N(C)[C@@H](CC(C)C)C(=O)N(C)[C@@H](CC(C)C)C(=O)N(C)[C@@H](C(C)C)C(=O)N1C (stereo partly drawn) [C, 3-[(thiophene-2-yl)methoxy]cyclosporin] | 4.96 | > 20000 | 6.05 | 6.46 | 1260 | < 4.70
4 | 3-benzyloxycyclosporin [Compound B] | 4.70 | > 20000 | 6.23 | 6.59 | 590 | < 4.70
5 | C/C=C/C[C@@H](C)[C@@H](O)[C@H]1C(=O)N[C@@H](CC)C(=O)N(C)C(OCc2ccco2)C(=O)N(C)[C@@H](CC(C)C)C(=O)N[C@@H](C(C)C)C(=O)N(C)[C@@H](CC(C)C)C(=O)N[C@@H](C)C(=O)N[C@H](C)C(=O)N(C)[C@@H](CC(C)C)C(=O)N(C)[C@@H](CC(C)C)C(=O)N(C)[C@@H](C(C)C)C(=O)N1C (stereo partly drawn) [D, 3-[(furan-2-yl)methoxy]cyclosporin] | 4.74 | > 20000 | 6.24 | 6.54 | 570 | < 4.70
6 | CC=CCC(C)C(O)C1C(=O)NC(CC)C(=O)N(C)C(SCc2ccccc2)C(=O)N(C)C(CC(C)C)C(=O)NC(C(C)C)C(=O)N(C)C(CC(C)C)C(=O)NC(C)C(=O)NC(C)C(=O)N(C)C(CC(C)C)C(=O)N(C)C(CC(C)C)C(=O)N(C)C(C(C)C)C(=O)N1C (stereo not drawn) [Compound A, 3-benzylthiocyclosporin] | 4.70 | > 20000 | 6.28 | 6.14 | 1840 | < 4.70
7 | C/C=C/C[C@@H](C)[C@@H](O)[C@H]1C(=O)N[C@@H](CC)C(=O)N(C)C(OCc2ccc(OC(F)(F)F)cc2)C(=O)N(C)[C@@H](CC(C)C)C(=O)N[C@@H](C(C)C)C(=O)N(C)[C@@H](CC(C)C)C(=O)N[C@@H](C)C(=O)N[C@H](C)C(=O)N(C)[C@@H](CC(C)C)C(=O)N(C)[C@@H](CC(C)C)C(=O)N(C)[C@@H](C(C)C)C(=O)N1C (stereo partly drawn) [F, 3-[(4-trifluoromethoxy)benzyloxy]cyclosporin] | < 4.70 | > 20000 | < 4.70 | 5.93 | 5420 | < 4.70
